Legend:
[1] = tested on: GABAAR in astrocytes (mono-culture); assay: Patch-clamp responsiveness of astrocytes in mono-culture to isoguvacine; assay type: cell-based, rat; details: Iso 10^−4 M; n = 31
Method: Primary cultures of astrocytes were prepared as previously described. Briefly, cerebellum from 7-day-old (P7) Wistar rats were collected in DMEM/Ham-F12 (2∶1, v/v) culture medium supplemented with 2 mM glutamine, 1% insulin, 5 mM HEPES, 0.4% D(+)-glucose and 1% of the antibiotic-antimycotic solution. The tissues were disaggregated mechanically with a syringue equipped with a 1-mm gauge needle, and filtered through a 100-µm pore size mesh filter (Falcon, Becton Dickinson, Grenoble, France). Dissociated cells were resuspended in culture medium supplemented with 10% heat-inactivated FBS and seeded in 150-cm^2 culture flasks (Falcon) at a density of 20×10^6 cells/flask. Cells were incubated at 37°C in a humidified atmosphere (5% CO2) and the medium was changed twice a week. When cultures were confluent, the flasks were gently shaken on an orbital shaker at […] for 2 h. Dislodged cells were discarded and a second step of purification was performed at […] for 14–16 h. Remaining adhesive cells were collected by trypsination, centrifuged (800 g, 10 min) and plated in 150-cm^2 flasks. Suspended astrocytes were harvested and seeded in 24-well poly-L-lysine-coated plates. The purity of the cultures was previously assessed by counting the percentage of astrocytes immunostained with GFAP antibodies. The enriched cultures contained >99% astrocytes. […]

[2] = tested on: GABAAR subunit combinations co-expressed with human UT; assay: Patch-clamp of GABA current in CHO co-expressing human UT and combinations of GABAAR subunits; assay type: cell-based
Method: CHO-K1 cell lines were obtained from American Type Culture Collection (Manassas, VA, USA). The human UT stable CHO (CHO-UT) was generously provided by Dr Christophe Dubessy (Inserm, Rouen University, France) et generated by CHO electroporation with 20 µg pIRES-neo2-UT DNA and 500 µg sterile sonicated salmon sperm DNA using the EasyJect One electroporation system (Equibio, Angleur, Belgium), followed by repetitive rounds of limiting dilution of cells in G-418 (400 µg/ml) for selection. Normal or stable CHO was grown in Ham-F12 medium supplemented with 10% FBS, 1% antibiotic-antimicotic solution and 2 mM glutamine, at 37°C in a humidified incubator with an atmosphere of 5% CO2. The stable CHO-UT medium was supplemented with the antibiotic G-418 (40 µg/ml).
For transfection, cells were trypsinized (0.05%), triturated in HamF-12 containing 10% FBS media, pelleted by centrifugation, resuspended in 100 µl solution V for nucleofection by an Amaxa Nucleofector Device (Köln, Germany; set to program U-016). Experiments were performed on normal CHO or on the stable CHO-UT cells and transiently transfected with combinations of cDNA encoding α2β3γ2, α2β3γ1, α2β1γ2, α2β3γ1, α2β3, β3γ2 (4 µg of cDNA total/transfection) GABAAR subunits. Cells were seeded on 14-mm poly-L-lysine-coated glass bottom insert dishes at 5×10^5 cells in a volume of 0.5 ml/dish. […]

## O=C(O)C1=CCNCC1 [Iso, isoguvacine]
[1]
  Cells responding to isoguvacine, astrocytes in mono-culture: 12%

## UII: Urotensin II, species not stated at that place (rUII in astrocytes, hUII in CHO and human cells)
[2]
  Activity on αβ binary complexes: inactive
  Depression of GABA current, order of subunit combinations: markedly depressed the GABA current (β3γ2>α2β3γ2>α2β1γ2)

From publication PMC3341351, “Down-Regulation of GABAA Receptor via Promiscuity with the Vasoactive Peptide Urotensin II Receptor. Potential Involvement in Astrocyte Plasticity” (PLoS ONE, 2012)
